Experimental data published in ChEMBL document CHEMBL1201862, “PubChem BioAssay data set” (2004).
Calls of active or inactive are those of the source.

Assays:
[1] = biological target: T1, Bcl-2-related protein A1 (Mus musculus, UniProt Q07440); assay: Bfl-1 binding inhibitors, SAR follow-up, biochemical, fluorescence polarization (AID 1070)
T1 sequence (Q07440 whole entry): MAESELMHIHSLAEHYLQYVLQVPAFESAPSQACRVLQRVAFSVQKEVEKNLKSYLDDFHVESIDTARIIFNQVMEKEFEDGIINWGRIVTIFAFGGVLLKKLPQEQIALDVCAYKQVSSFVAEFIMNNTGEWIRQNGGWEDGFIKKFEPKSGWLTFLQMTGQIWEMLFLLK

[2] = biological target: T1, Bcl-2-related protein A1; assay: Bfl-1 inhibitors blocking BH3 peptide binding, confirmation, biochemical, TR-FRET, mouse Bfl-1 (AID 621);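 further: TR-FRET binding of GST-Bfl-1 to FITC-labelled Bid peptide via terbium antibody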
[3] = biological target: T2, Aryl hydrocarbon receptor (Homo sapiens, UniProt P35869); assay: Luminescence-based cell-based high throughput dose response assay for activators of the Aryl Hydrocarbon Receptor (AHR). [Related pubchem assays: 2796 (Primary screen (AHR activators in singlicate)), 2845 (Confirmation screen (AHR activators in triplicate)), 434939 (Counterscreen (PXR activators in triplicate)), 2804 (Summary (AHR activators))]; format: ADME
T2 sequence (P35869 whole entry): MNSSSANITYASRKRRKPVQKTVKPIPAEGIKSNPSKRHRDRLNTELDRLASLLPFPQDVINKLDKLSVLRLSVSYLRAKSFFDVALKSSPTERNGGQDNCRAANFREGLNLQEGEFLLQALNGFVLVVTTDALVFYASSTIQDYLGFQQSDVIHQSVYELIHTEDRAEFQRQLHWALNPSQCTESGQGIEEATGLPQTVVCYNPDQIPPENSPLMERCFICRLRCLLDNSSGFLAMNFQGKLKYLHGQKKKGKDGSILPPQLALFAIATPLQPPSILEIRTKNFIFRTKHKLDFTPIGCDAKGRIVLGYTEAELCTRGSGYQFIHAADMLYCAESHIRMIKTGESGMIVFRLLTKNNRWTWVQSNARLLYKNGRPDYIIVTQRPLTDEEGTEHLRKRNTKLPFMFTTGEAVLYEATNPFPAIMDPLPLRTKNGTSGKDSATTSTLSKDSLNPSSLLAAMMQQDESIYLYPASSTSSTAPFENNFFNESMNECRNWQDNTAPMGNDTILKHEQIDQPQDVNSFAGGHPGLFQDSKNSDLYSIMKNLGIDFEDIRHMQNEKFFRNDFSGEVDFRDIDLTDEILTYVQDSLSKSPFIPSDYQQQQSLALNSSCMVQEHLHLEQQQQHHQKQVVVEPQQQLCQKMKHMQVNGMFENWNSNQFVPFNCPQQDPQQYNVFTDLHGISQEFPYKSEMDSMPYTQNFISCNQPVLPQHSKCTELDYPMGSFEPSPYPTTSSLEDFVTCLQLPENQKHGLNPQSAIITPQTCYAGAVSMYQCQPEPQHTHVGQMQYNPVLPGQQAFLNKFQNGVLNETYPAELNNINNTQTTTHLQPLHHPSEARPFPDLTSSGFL

[4] = biological target: Ephrin type-A receptor 4 (Mus musculus, UniProt Q03137); assay: inhibitors of EphA4 binding to KYL peptide, primary screen, biochemical, colorimetric, mouse EphA4 (AID 689); format: functional
[5] = biological target: Glucose-6-phosphate 1-dehydrogenase (Homo sapiens, UniProt P11413); assay: human G6PD enzyme inhibitors, dose response, selectivity assay for P. falciparum G6PD inhibitor project, biochemical, fluorescence (AID 504792); format: functional
[6] = biological target: Large T antigen (Simian virus 40, UniProt P03070); format: functional, Betapolyomavirus macacae;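 further: Confirmatory-stage PubChem screen for compounds that inhibit SV40 T antigen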
[7] = system: Streptococcus sp. 'group A'; assay: growth inhibition of control SK(-) GAS strain, dose response, counter-screen for streptokinase expression inhibitor project, luminescence, kanamycin, BacTiterGlo, confirmation (AID 1900); format: functional, organism-based
[8] = system: INS1; assay: beta cell apoptosis inhibitors, cytokine rescue, dose response, luminescence, retest (AID 449756); format: functional, cell-based; details: Rattus norvegicus;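 further: cell death triggered by IL-1 beta plus TNF-alpha plus IFN-gamma mixture; protective hits raise ATP signal compared with cytokine alone wells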
[9] = cells; format: functional, cell-based
[10] = system: Streptococcus; assay: Group A Streptococcus viability loss, dose response, counter-screen for streptokinase expression inhibitor project, luminescence, BacTiterGlo (AID 1915); format: functional, organism-based;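 further: potency for reduction of bacterial viability or growth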
[11] = cytotoxicity toward NIH3T3 fibroblasts, dose response, counter-screen, cell-based, ATP luminescence, mouse fibroblasts (AID 2010); format: functional;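 further: cells exposed to compound for about 90 hours before reading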
[12] = cells; format: functional, cell-based; remark: listed apart in the source
[13] = inhibitors of intracellular T. cruzi replication, confirmation, NIH3T3 host cells, beta-gal luminescence (AID 2044); format: functional, cell-based;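 further: intracellular parasites grown in NIH/3T3 mouse fibroblasts as host cells; luminescent beta-galactosidase reporter signal from transgenic T. cruzi replicating inside host cells; inhibitors lower the luminescence signal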
[14] = biological target: Voltage-gated inwardly rectifying potassium channel KCNH2 (Homo sapiens, UniProt Q12809); assay: hERG protection from proarrhythmic block, potency, dose response, cell-based, thallium flux (AID 2121); format: ADME
[15] = biological target: Procathepsin L (Homo sapiens, UniProt P07711); assay: cathepsin L inhibitors, dose response, counter-screen for M1/M17 aminopeptidase inhibitor project, biochemical, QFRET, 1536-well (AID 2214)
[16] = biological target: T3, Aspartyl aminopeptidase (Plasmodium falciparum 3D7, UniProt Q8I2J3); assay: Counterscreen for inhibitors of M1 and M17 aminopeptidases: QFRET-based biochemical high throughput dose response assay for inhibitors of the Plasmodium falciparum M18 Aspartyl Aminopeptidase (PFM18AAP). [Related PubChem assays: 1619 (Screening assay (M17LAP inhibitors).), 1445 (Screening assay (M1AAP inhibitors).)]
T3 sequence (Q8I2J3 whole entry): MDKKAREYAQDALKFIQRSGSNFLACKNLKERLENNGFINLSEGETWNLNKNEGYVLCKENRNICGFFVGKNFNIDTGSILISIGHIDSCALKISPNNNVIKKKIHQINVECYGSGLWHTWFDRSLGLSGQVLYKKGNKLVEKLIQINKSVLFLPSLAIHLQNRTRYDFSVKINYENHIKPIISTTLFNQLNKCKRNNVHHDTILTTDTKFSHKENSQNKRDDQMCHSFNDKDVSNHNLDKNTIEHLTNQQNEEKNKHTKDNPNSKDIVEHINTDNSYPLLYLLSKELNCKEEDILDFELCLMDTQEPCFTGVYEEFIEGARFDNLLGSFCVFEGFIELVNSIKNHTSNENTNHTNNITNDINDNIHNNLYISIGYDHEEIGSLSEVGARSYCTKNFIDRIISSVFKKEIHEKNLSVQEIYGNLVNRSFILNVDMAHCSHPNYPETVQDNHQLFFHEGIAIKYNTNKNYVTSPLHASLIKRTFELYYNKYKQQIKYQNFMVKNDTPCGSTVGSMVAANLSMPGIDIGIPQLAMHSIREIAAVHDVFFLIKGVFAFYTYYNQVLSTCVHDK

[17] = biological target: T4, Leucine aminopeptidase (Plasmodium falciparum 3D7, UniProt Q8IL11); assay: P. falciparum M17LAP inhibitors, primary screen, biochemical, fluorogenic H-Leu-NHMec substrate, 1536-well (AID 1619); format: functional
T4 sequence (Q8IL11 whole entry): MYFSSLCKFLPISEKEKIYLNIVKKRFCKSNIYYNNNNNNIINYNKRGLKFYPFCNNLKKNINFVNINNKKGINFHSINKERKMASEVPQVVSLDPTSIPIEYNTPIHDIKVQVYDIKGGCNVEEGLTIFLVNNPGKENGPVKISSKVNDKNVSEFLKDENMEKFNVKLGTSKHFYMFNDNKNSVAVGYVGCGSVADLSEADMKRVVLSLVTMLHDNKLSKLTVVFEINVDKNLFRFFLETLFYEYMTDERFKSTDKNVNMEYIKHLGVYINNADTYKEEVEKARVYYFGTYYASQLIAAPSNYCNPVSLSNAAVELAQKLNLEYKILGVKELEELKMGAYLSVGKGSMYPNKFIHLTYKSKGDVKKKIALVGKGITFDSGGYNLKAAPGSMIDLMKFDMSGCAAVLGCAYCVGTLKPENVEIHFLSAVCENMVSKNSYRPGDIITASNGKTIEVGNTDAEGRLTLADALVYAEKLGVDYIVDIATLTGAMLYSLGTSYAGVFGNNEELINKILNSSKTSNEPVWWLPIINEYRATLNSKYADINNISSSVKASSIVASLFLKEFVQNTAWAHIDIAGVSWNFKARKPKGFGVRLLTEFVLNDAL

[18] = biological target: T1, Bcl-2-related protein A1; assay: Bfl-1 inhibitors, primary screen, biochemical, fluorescence polarization, FITC-Bid, mouse (AID 432)
[19] = biological target: Galanin receptor type 2 (Homo sapiens, UniProt O43603); assay: Dose Response cell-based high-throughput screening assay to identify antagonists of galanin receptor 2 (GALR2). [Related pubchem assays: 828, 866 ]; format: functional
[20] = biological target: Genome polyprotein (Hepatitis C virus, UniProt Q2Q167); assay: HCV core protein dimerization inhibitors, dose response, biochemical, TR-FRET (AID 2159); parameters: species or system Hepacivirus hominis;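 further: blocks dimerization of HCV core protein measured by TR-FRET between tagged core106 pairs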
[21] = biological target: T5, Estrogen receptor (Homo sapiens, UniProt P03372);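 further: potency for inhibiting coactivator peptide recruitment to the receptor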
T5 sequence (P03372 whole entry): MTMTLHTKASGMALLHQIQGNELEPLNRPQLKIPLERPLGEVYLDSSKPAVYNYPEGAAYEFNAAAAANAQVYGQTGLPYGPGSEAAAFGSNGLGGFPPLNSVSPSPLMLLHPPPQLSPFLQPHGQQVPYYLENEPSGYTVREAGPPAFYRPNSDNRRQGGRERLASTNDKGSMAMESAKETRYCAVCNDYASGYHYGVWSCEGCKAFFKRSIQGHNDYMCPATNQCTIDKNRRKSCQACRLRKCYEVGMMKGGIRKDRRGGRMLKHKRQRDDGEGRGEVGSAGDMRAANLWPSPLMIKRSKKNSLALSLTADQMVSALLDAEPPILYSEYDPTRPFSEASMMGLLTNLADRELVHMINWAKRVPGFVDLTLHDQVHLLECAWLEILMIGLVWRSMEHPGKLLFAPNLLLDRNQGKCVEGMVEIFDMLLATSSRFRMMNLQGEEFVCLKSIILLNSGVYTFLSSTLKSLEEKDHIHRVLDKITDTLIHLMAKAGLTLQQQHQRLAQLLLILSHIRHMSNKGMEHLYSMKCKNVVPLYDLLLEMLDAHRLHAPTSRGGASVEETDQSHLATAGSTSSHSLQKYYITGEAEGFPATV

[22] = biological target: Induced myeloid leukemia cell differentiation protein Mcl-1 (Homo sapiens, UniProt Q07820); format: functional
[23] = biological target: Photoreceptor-specific nuclear receptor (Homo sapiens, UniProt Q9Y5X4); assay: NR2E3 inverse agonists, dose response, biochemical, TR-FRET (AID 463256); format: functional
[24] = biological target: Peroxisome proliferator-activated receptor gamma/Nuclear receptor corepressor 2 (Homo sapiens, UniProt P37231+Q9Y618); assay: Counterscreen for NR2E3 inverse agonists: TR-FRET-based biochemical high throughput dose response assay to identify inverse agonists of the interaction between peroxisome proliferator-activated receptor gamma (PPARg) and nuclear receptor co-repressor 2 (NCOR2).; format: functional
[25] = M. tuberculosis growth inhibition, HTS (AID 449762); format: functional
[26] = biological target: FAD-linked sulfhydryl oxidase ALR (Homo sapiens, UniProt P55789); assay: inhibitors of human ALR sulfhydryl oxidase, dose response, biochemical, H2O2 detection, luminescence, cherry-pick (AID 493248)
[27] = biological target: Cytochrome P450 2C19 (Homo sapiens, UniProt P33261); assay: qHTS Assay for Inhibitors and Substrates of Cytochrome P450 2C19. [Related pubchem assays: 410 ]; format: ADME; details: read-out: Potency
[28] = Fluorescence Cell-Based Dose Response to Identify Inhibitors of Thrombin Receptor-Activating Peptide SFLLRN-Mediated P-Selectin Induction on Platelets. [Related pubchem assays: 1663 (Primary HTS), 1889 (retest at dose ), 1891 (counterscreen), 1678 (Project Summary)]; format: functional
[29] = Luminescence Cell-Based Dose Confirmation HTS to Identify Inhibitors of Platelet Dense Granule Release. [Related pubchem assays: 1663 (Primary HTS), 1678 (Summary of Project)]; format: functional
[30] = biological target: Luciferin 4-monooxygenase (Photinus pyralis, UniProt P08659); assay: firefly luciferase enzyme inhibitors, dose response, biochemical, luminescence (AID 1891)
Luciferin 4-monooxygenase, sequence (P08659 whole entry): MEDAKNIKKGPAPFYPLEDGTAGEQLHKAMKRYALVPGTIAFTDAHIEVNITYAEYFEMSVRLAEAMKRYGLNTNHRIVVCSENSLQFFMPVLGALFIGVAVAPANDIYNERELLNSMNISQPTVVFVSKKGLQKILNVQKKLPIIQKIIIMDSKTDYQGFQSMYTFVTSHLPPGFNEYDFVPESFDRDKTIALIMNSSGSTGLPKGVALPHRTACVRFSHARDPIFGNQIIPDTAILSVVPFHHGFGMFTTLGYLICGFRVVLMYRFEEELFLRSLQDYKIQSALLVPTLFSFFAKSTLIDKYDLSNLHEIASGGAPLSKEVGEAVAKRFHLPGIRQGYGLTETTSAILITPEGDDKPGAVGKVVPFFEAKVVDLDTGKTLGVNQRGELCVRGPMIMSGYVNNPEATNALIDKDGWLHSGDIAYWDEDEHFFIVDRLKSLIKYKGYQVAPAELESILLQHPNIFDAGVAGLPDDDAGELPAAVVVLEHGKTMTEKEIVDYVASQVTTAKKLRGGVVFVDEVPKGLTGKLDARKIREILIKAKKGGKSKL

Genome polyprotein, sequence (Q2Q167 whole entry): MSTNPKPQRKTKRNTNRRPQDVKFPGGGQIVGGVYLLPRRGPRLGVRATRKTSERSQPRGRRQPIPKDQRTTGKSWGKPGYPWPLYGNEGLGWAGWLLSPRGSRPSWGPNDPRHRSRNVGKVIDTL
FAD-linked sulfhydryl oxidase ALR, sequence (P55789 whole entry): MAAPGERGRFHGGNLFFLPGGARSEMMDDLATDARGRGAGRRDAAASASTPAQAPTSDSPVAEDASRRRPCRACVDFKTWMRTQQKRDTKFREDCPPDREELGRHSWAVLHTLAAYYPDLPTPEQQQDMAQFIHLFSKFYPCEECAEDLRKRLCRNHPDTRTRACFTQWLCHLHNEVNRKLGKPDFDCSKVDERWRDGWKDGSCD
Glucose-6-phosphate 1-dehydrogenase, sequence (P11413 whole entry): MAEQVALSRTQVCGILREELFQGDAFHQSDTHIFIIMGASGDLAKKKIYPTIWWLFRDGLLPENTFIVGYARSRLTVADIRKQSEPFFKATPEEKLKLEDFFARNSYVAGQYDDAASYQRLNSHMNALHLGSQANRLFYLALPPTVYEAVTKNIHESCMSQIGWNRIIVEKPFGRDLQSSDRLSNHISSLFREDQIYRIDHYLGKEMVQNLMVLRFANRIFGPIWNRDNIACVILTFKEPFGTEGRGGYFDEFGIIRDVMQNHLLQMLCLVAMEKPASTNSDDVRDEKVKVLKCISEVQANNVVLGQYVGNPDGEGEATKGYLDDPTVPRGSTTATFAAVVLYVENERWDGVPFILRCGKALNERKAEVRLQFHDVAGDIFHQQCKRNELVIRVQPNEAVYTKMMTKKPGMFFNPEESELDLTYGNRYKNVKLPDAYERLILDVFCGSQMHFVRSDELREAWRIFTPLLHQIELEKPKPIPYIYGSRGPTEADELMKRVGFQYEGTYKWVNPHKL
Voltage-gated inwardly rectifying potassium channel KCNH2, sequence (Q12809 whole entry): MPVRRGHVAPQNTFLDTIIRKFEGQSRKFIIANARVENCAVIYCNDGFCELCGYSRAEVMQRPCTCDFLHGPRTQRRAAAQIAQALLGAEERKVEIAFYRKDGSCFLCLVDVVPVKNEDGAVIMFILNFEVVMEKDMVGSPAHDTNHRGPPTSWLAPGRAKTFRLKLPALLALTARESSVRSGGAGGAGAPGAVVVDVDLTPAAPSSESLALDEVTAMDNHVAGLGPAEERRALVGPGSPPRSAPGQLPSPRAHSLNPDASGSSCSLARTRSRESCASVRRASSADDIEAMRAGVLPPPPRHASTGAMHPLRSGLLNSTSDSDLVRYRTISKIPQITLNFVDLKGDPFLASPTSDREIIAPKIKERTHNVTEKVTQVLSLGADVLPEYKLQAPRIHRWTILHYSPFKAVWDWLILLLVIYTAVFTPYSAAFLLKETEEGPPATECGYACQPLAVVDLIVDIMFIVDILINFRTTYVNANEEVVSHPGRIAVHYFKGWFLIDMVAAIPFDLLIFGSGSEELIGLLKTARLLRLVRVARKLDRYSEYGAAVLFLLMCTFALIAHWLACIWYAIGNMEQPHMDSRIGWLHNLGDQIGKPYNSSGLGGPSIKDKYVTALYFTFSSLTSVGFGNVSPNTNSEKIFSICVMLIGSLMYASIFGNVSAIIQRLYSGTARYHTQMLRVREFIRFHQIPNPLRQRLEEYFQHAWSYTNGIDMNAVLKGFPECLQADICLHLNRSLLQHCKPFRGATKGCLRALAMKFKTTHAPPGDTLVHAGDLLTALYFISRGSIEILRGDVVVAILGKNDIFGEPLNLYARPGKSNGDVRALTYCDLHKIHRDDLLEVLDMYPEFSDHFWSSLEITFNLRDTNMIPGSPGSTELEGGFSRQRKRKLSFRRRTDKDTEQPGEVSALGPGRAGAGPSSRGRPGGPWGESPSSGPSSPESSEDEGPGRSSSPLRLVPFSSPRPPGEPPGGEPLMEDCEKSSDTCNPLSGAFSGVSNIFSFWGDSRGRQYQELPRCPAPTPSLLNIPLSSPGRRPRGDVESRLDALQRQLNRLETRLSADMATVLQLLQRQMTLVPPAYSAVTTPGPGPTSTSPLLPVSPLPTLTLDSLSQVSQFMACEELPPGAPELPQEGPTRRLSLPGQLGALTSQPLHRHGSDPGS
Procathepsin L, sequence (P07711 whole entry): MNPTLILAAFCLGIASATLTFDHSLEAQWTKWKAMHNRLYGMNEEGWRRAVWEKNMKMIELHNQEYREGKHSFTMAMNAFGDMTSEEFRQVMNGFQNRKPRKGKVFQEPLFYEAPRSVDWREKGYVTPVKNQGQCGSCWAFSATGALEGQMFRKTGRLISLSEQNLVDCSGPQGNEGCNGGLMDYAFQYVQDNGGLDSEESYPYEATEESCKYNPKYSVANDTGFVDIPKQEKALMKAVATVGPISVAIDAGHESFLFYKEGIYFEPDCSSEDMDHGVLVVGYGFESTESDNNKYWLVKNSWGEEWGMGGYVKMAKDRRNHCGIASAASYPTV
Cytochrome P450 2C19, sequence (P33261 whole entry): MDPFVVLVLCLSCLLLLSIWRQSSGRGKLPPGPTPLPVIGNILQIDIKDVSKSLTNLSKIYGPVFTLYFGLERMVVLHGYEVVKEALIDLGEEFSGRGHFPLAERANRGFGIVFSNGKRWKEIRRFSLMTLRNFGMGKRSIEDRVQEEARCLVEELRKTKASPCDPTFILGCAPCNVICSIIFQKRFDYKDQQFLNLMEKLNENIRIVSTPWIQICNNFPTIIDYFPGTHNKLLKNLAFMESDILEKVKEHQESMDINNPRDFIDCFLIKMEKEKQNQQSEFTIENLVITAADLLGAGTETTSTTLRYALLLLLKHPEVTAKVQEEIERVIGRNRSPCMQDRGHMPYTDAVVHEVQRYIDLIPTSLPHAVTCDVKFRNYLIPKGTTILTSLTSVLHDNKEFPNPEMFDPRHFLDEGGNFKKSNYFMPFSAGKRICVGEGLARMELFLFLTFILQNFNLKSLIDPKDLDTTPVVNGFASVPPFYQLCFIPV
Galanin receptor type 2, sequence (O43603 whole entry): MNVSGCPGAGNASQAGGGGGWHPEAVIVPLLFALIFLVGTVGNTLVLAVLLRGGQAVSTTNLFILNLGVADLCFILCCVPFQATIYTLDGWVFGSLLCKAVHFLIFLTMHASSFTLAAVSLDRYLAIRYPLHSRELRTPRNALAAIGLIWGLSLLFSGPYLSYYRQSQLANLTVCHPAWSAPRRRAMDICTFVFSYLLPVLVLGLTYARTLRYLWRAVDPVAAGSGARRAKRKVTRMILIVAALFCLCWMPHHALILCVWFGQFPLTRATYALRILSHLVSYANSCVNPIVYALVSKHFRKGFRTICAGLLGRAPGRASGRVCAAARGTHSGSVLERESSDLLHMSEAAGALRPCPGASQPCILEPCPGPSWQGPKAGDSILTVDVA
Ephrin type-A receptor 4, sequence (Q03137 whole entry): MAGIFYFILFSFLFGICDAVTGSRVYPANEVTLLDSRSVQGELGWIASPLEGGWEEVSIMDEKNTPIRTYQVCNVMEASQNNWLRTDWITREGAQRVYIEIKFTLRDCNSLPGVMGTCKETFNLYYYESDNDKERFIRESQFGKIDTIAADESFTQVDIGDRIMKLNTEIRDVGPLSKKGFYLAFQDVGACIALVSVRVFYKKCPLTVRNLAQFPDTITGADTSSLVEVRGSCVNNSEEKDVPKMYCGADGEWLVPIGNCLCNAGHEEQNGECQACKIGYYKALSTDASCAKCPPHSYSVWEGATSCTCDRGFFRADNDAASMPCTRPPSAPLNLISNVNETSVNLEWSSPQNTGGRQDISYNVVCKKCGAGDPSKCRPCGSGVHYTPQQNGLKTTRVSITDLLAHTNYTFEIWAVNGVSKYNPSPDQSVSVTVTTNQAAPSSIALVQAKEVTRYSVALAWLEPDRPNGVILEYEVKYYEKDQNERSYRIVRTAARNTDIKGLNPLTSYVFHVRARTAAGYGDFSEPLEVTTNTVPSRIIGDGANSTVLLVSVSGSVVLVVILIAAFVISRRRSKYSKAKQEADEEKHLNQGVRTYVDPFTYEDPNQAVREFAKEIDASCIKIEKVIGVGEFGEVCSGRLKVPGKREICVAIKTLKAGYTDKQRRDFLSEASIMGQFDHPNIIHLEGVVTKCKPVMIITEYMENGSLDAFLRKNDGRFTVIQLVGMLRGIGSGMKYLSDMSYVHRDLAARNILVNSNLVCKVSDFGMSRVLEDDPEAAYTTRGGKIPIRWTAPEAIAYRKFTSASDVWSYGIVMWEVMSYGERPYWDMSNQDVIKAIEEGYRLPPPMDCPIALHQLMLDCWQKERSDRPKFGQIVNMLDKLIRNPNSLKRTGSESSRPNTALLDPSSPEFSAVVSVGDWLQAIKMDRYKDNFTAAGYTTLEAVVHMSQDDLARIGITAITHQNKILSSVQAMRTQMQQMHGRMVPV

With O=C1C(Cl)=C(N2CCN(C/C=C/c3ccccc3)CC2)C(=O)N1c1ccc(Cl)c(Cl)c1 the IC50 [1] was 0.594 µM (active) and the IC50 [2] was 0.73 µM (active).

In the case of CC(=O)c1noc(C)c1C(=O)Nc1nccs1, the EC50 [3] is reported as 6.46 µM (active).

With COc1ccccc1N1CSC2=C(C#N)C(c3ccc(SC)cc3)CC(=O)N2C1 (stereo unspecified) the IC50 [4] was 21.5 µM (active), the IC50 [5] was > 80 µM (inactive) and the IC50 [6] was 28.4 µM (active).

For Cc1ccc(N=Nc2ccc(O)c3ncccc23)cc1, the EC50 [7] was 0.165 µM (active), the AC50 [8] was 1.3 µM (active) and the EC50 [9] was > 350 µM (not active). The EC50 [10] was 1.56 µM (active), the EC50 [11] was 32.7 µM (active) and the EC50 [12] was 9.69 µM (active). For the same molecule, the EC50 [13] was 0.686 µM (active) and the EC50 [14] was 2.02 µM (active).

In the case of N#Cc1c(NC(=O)C2C3C=CC(C3)C2C(=O)O)sc2c1CCCCC2 (stereo unspecified), the IC50 [15] is reported as > 59.6 µM (not active), the IC50 [16] is reported as > 73.5 µM (not active) and the IC50 [17] is reported as 1.39 µM (active).

With COc1ccc(N2C(=O)C(Cl)=C(Nc3c(C)n(C)n(-c4ccccc4)c3=O)C2=O)cc1 the IC50 [2] was > 100 µM (not active) and the IC50 [18] was > 100 µM (not active).

For CCOC(=O)c1ccc(N2C(=O)CC(N3CCC(O)(c4ccc(Br)cc4)CC3)C2=O)cc1 (stereo unspecified), the IC50 [19] was > 42 µM (not active).

In the case of Cc1oc(-c2ccc(Cl)cc2)cc1-c1nn2c(-c3ccoc3C)nnc2s1, the IC50 [20] is reported as > 49.8 µM (not active), the IC50 [21] is reported as 2.77 µM (active) and the IC50 [22] is reported as 3.8 µM (not active).

With O=C(Cc1ccccc1)Nc1ccc2oc(-c3ccncc3)nc2c1 the IC50 [23] was 6.31 µM (active) and the IC50 [24] was 6.54 µM (active).

In the case of O=C1CCC(=O)N1CNc1ccc(Oc2ccccc2)cc1, the IC50 [25] is reported as > 100 µM (active) and the AC50 [26] is reported as 0.166 µM (active).

With COc1ccccc1N1CCN(CCN(C(=O)c2ccc(I)cc2)c2ccccn2)CC1 the AC50 [27] was 10 µM (inconclusive).

With C/C(=N/NC(=O)C1CCCC1)c1ccc(NC(=O)C(F)(F)F)cc1 the EC50 [28] was < 1 µM (active), the EC50 [29] was 3.55 µM (active) and the EC50 [30] was > 112 µM (not active).
